Measurements published in ChEMBL document CHEMBL1201862, “PubChem BioAssay data set” (2004).
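Step 1: Grow cells in 96-well plates. Step 2: Expose to compound for 48 hours at 5 concentrations. Step 3: Interpolate endpoints linearly; if unreached, use highest concentration. GI50 is the concentration that inhibits growth by half.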 Activity calls are given as the source filed them. Cut-off read from the data, not from the text of the source: active = GI50 up to about 1.1 µM and inactive = higher.

Key:
Test in all cases: inhibition of tumour cell growth, NCI panel, 48 h
[1] = test system: 786-0
[2] = test system: HCC 2998
[3] = test system: HCT-116
[4] = test system: K562
[5] = test system: LOX IMVI
[6] = test system: MCF7
[7] = test system: MDA-MB-435
[8] = test system: Malme-3M
[9] = test system: NCI-H23
[10] = test system: NCI/ADR-RES
[11] = test system: OVCAR-3
[12] = test system: OVCAR-8
[13] = test system: SF-539
[14] = test system: SK-MEL-28
[15] = test system: SN12C
[16] = test system: SNB-75
[17] = test system: SR
[18] = test system: SW-620
[19] = test system: T47D

COc1cccc2c1C(=O)C(=O)c1c-2oc(=O)c2cc(C)cc(OC)c12
GI50 [1]: 26.2 µM (inactive) | GI50 [2]: 14.5 µM (inactive) | GI50 [3]: 27.4 µM (inactive) | GI50 [4]: 22.3 µM (inactive) | GI50 [5]: 13.6 µM (inactive) | GI50 [6]: 23.7 µM (inactive) | GI50 [7]: 14.2 µM (inactive) | GI50 [8]: 26.9 µM (inactive) | GI50 [9]: 19.3 µM (inactive) | GI50 [10]: 15.8 µM (inactive) | GI50 [11]: 15.7 µM (inactive) | GI50 [12]: 14.9 µM (inactive) | GI50 [13]: 63 µM (inactive) | GI50 [14]: 53.6 µM (inactive) | GI50 [15]: 53.8 µM (inactive) | GI50 [16]: 22.6 µM (inactive) | GI50 [17]: 8.91 µM (inactive) | GI50 [18]: 29.4 µM (inactive) | GI50 [19]: 29.9 µM (inactive)

Cc1cccc(/N=N/c2c(C)nn(C(=O)CC(=O)Nc3ccccc3)c2C)c1
GI50 [1]: > 100 µM (inactive) | GI50 [2]: > 100 µM (inactive) | GI50 [3]: > 100 µM (inactive) | GI50 [5]: > 100 µM (inactive) | GI50 [6]: > 100 µM (inactive) | GI50 [7]: > 100 µM (inactive) | GI50 [8]: > 100 µM (inactive) | GI50 [9]: > 100 µM (inactive) | GI50 [10]: > 100 µM (inactive) | GI50 [11]: > 100 µM (inactive) | GI50 [12]: > 100 µM (inactive) | GI50 [13]: > 100 µM (inactive) | GI50 [14]: > 100 µM (inactive) | GI50 [15]: > 100 µM (inactive) | GI50 [16]: > 100 µM (inactive) | GI50 [17]: > 100 µM (inactive) | GI50 [18]: > 100 µM (inactive) | GI50 [19]: > 100 µM (inactive)

CCN1CCC(O)(c2ccc(Oc3ccc(Cl)cc3)cc2)C(C(=O)c2ccc(Oc3ccc(Cl)cc3)cc2)C1 (stereo not given)
GI50 [1]: 3.55 µM (inactive) | GI50 [2]: 12.5 µM (inactive) | GI50 [3]: 3.78 µM (inactive) | GI50 [4]: 5.28 µM (inactive) | GI50 [5]: 3.78 µM (inactive) | GI50 [6]: 5.41 µM (inactive) | GI50 [7]: 16.4 µM (inactive) | GI50 [8]: 17.2 µM (inactive) | GI50 [9]: 11.7 µM (inactive) | GI50 [10]: 17.3 µM (inactive) | GI50 [12]: 17.1 µM (inactive) | GI50 [13]: 15.3 µM (inactive) | GI50 [14]: 20.5 µM (inactive) | GI50 [15]: 13.7 µM (inactive) | GI50 [16]: 12.9 µM (inactive) | GI50 [17]: 3.48 µM (inactive) | GI50 [18]: 12.8 µM (inactive) | GI50 [19]: 14.7 µM (inactive)

O=C(CCCCCCCCC(=O)N1C(=O)CC(=O)N(c2ccccc2)C1=S)N1C(=O)CC(=O)N(c2ccccc2)C1=S
GI50 [1]: > 100 µM (inactive) | GI50 [2]: > 100 µM (inactive) | GI50 [3]: > 100 µM (inactive) | GI50 [5]: > 100 µM (inactive) | GI50 [6]: > 100 µM (inactive) | GI50 [7]: > 100 µM (inactive) | GI50 [8]: > 100 µM (inactive) | GI50 [9]: > 100 µM (inactive) | GI50 [10]: > 100 µM (inactive) | GI50 [11]: > 100 µM (inactive) | GI50 [12]: > 100 µM (inactive) | GI50 [15]: > 100 µM (inactive) | GI50 [16]: > 100 µM (inactive) | GI50 [17]: > 100 µM (inactive) | GI50 [19]: > 100 µM (inactive)

O=S(=O)([C-]([I+]c1ccccc1)S(=O)(=O)C(F)(F)C(F)(F)C(F)(F)C(F)(F)F)C(F)(F)C(F)(F)C(F)(F)C(F)(F)F
GI50 [1]: 14.9 µM (inactive) | GI50 [2]: 20 µM (inactive) | GI50 [4]: 4.11 µM (inactive) | GI50 [5]: 14.4 µM (inactive) | GI50 [6]: 6.05 µM (inactive) | GI50 [7]: 19.3 µM (inactive) | GI50 [8]: 11 µM (inactive) | GI50 [9]: 19.1 µM (inactive) | GI50 [10]: 24.3 µM (inactive) | GI50 [11]: 15.9 µM (inactive) | GI50 [12]: > 10 µM (inactive) | GI50 [13]: 15.5 µM (inactive) | GI50 [14]: 15.8 µM (inactive) | GI50 [16]: 14.8 µM (inactive) | GI50 [17]: 4.14 µM (inactive) | GI50 [18]: 5.69 µM (inactive) | GI50 [19]: 11.1 µM (inactive)

CN(C)CCNc1nc(-c2ccc3ccccc3c2)nc2[nH]cnc12
GI50 [1]: 10 µM (inactive) | GI50 [2]: 1.99 µM (inactive) | GI50 [3]: 8.83 µM (inactive) | GI50 [4]: 21.1 µM (inactive) | GI50 [5]: 4.55 µM (inactive) | GI50 [6]: 7.33 µM (inactive) | GI50 [7]: 11 µM (inactive) | GI50 [8]: 4.51 µM (inactive) | GI50 [9]: 11.7 µM (inactive) | GI50 [10]: 7.33 µM (inactive) | GI50 [11]: 7.64 µM (inactive) | GI50 [12]: 10.8 µM (inactive) | GI50 [14]: 13.6 µM (inactive) | GI50 [15]: 11.1 µM (inactive) | GI50 [16]: 1.1 µM (active) | GI50 [17]: 2.88 µM (inactive) | GI50 [18]: 11.4 µM (inactive) | GI50 [19]: 12.5 µM (inactive)

Cc1ccc(Nc2nc(=O)[nH]c(=O)[nH]2)cc1N
GI50 [1]: > 100 µM (inactive) | GI50 [2]: > 100 µM (inactive) | GI50 [3]: > 100 µM (inactive) | GI50 [5]: > 100 µM (inactive) | GI50 [6]: > 100 µM (inactive) | GI50 [7]: 26.5 µM (inactive) | GI50 [8]: > 100 µM (inactive) | GI50 [9]: > 100 µM (inactive) | GI50 [10]: > 100 µM (inactive) | GI50 [11]: > 100 µM (inactive) | GI50 [12]: > 100 µM (inactive) | GI50 [13]: > 100 µM (inactive) | GI50 [14]: 32.7 µM (inactive) | GI50 [15]: > 100 µM (inactive) | GI50 [16]: > 100 µM (inactive) | GI50 [17]: > 100 µM (inactive) | GI50 [18]: 30.8 µM (inactive) | GI50 [19]: > 100 µM (inactive)

CCO[C@]12CCC[C@H]1[C@@H]1C(=O)c3ccccc3C(=O)C1=C(C)O2
GI50 [1]: 29.2 µM (inactive) | GI50 [2]: > 100 µM (inactive) | GI50 [4]: 32 µM (inactive) | GI50 [5]: 20.8 µM (inactive) | GI50 [6]: 17 µM (inactive) | GI50 [7]: 39.5 µM (inactive) | GI50 [8]: > 100 µM (inactive) | GI50 [9]: 98.2 µM (inactive) | GI50 [10]: > 100 µM (inactive) | GI50 [11]: 22 µM (inactive) | GI50 [12]: 40.1 µM (inactive) | GI50 [13]: 29.4 µM (inactive) | GI50 [14]: > 100 µM (inactive) | GI50 [15]: > 100 µM (inactive) | GI50 [16]: 58.6 µM (inactive) | GI50 [17]: 22.3 µM (inactive) | GI50 [18]: 37.2 µM (inactive) | GI50 [19]: 70 µM (inactive)

C=C1c2cc3c(cc2CC12Cc1cc4c(cc1C2=O)CCC4)CCC3 (stereo not given)
GI50 [1]: > 100 µM (inactive) | GI50 [2]: > 100 µM (inactive) | GI50 [3]: > 100 µM (inactive) | GI50 [4]: > 100 µM (inactive) | GI50 [5]: > 100 µM (inactive) | GI50 [6]: > 100 µM (inactive) | GI50 [7]: > 100 µM (inactive) | GI50 [8]: > 100 µM (inactive) | GI50 [9]: > 100 µM (inactive) | GI50 [10]: > 100 µM (inactive) | GI50 [11]: > 100 µM (inactive) | GI50 [12]: > 100 µM (inactive) | GI50 [13]: > 100 µM (inactive) | GI50 [14]: > 100 µM (inactive) | GI50 [16]: > 100 µM (inactive) | GI50 [17]: 36.1 µM (inactive) | GI50 [18]: > 100 µM (inactive) | GI50 [19]: > 100 µM (inactive)

Nc1ccccc1C(=O)CCc1c[nH]c2ccccc12
GI50 [1]: 46.2 µM (inactive) | GI50 [2]: > 100 µM (inactive) | GI50 [3]: > 100 µM (inactive) | GI50 [4]: > 100 µM (inactive) | GI50 [5]: 47.5 µM (inactive) | GI50 [6]: > 100 µM (inactive) | GI50 [7]: > 100 µM (inactive) | GI50 [8]: > 100 µM (inactive) | GI50 [10]: > 100 µM (inactive) | GI50 [11]: > 100 µM (inactive) | GI50 [12]: > 100 µM (inactive) | GI50 [13]: 30.3 µM (inactive) | GI50 [14]: > 100 µM (inactive) | GI50 [15]: > 100 µM (inactive) | GI50 [16]: 29.4 µM (inactive) | GI50 [17]: > 100 µM (inactive) | GI50 [18]: > 100 µM (inactive) | GI50 [19]: 5.53 µM (inactive)

COc1ccc(Nc2nc3cc(C(F)(F)F)ccc3n3cccc23)cc1OC
GI50 [1]: 8.15 µM (inactive) | GI50 [2]: 14 µM (inactive) | GI50 [3]: 12.1 µM (inactive) | GI50 [4]: 9.04 µM (inactive) | GI50 [5]: 4.7 µM (inactive) | GI50 [6]: 16.6 µM (inactive) | GI50 [7]: 15.7 µM (inactive) | GI50 [8]: 24.2 µM (inactive) | GI50 [9]: 17.6 µM (inactive) | GI50 [10]: 15.6 µM (inactive) | GI50 [11]: 20.7 µM (inactive) | GI50 [12]: 23.3 µM (inactive) | GI50 [13]: 16.8 µM (inactive) | GI50 [14]: 28.2 µM (inactive) | GI50 [16]: 10.6 µM (inactive) | GI50 [17]: 9.89 µM (inactive) | GI50 [18]: 34.7 µM (inactive) | GI50 [19]: 6.37 µM (inactive)
